“Also recorded” adds a separate entry of the source.
How the values were obtained:
microorganisms [1] = assay: Peptide activities: binding, antimicrobial, growth or phenotype altering (Table 8)
Source text: In certain embodiments, peptides described herein can have multiple activities. Thus for example, a peptide can have both binding/targeting activity and antimicrobial activity. Such peptides can be used, e.g., in a chimeric construct, for any or all of these properties. Thus, for example, a peptide designated “B” in Table 8 can be used as a targeting peptide. If it is also designated G or M it can also be used for antimicrobial activity.

microorganisms [2] = assay: Morphology, biofilm and growth disruption by peptides (Table 5); format: cell-based; set-up: key: A: Peptide aggregates; B: Less hyphal formation; Clumps; Diffuse clumps and small polyps; F: Diffuse growth; H: Thin; I: Growth inhibition; Microcolony formation; Rippled; Small polyps; Thick; W: Halo formation on top, microlonies on bottom
Source text: In certain embodiments peptides that induce alterations in phenotype or other biological activities can also be used as antimicrobial effector moieties.

bacteria = assay: Binding of targeting peptides to microorganisms (Table 3); conditions: preferably 1x PBS; for Target(s): microorganism bound by the targeting peptide, binding in aqueous buffers chosen by peptide solubility; for Target(s) (microorganisms bound by the targeting peptide): peptide binding in aqueous buffers that varied depending on peptide solubility

Row | Substance | Activities (microorganisms [1]) | Organism, effect (microorganisms [2]; C. jejuni) | Organism, effect (microorganisms [2]; E. coli) | Organism, effect (microorganisms [2]; E. faecalis) | Organism, effect (microorganisms [2]; MRSA) | Organism, effect (microorganisms [2]; S. epidermidis) | Organism, effect (microorganisms [2]; S. pneumoniae) | Target(s) (bacteria) | Target(s) (microorganisms bound by the targeting peptide) (bacteria) | Organism, effect (morphology, biofilm and growth disruption) (microorganisms [2]; C. jejuni) | Organism, effect (morphology, biofilm and growth disruption) (microorganisms [2]; E. faecalis) | Organism, effect (morphology, biofilm and growth disruption) (microorganisms [2]; MRSA) | Organism, effect (morphology, biofilm and growth disruption) (microorganisms [2]; S. epidermidis) | Organism, effect (morphology, biofilm and growth disruption) (microorganisms [2]; S. pneumoniae) | Organism, effect (morphology, biofilm and growth disruption) (microorganisms [2]; E. coli)
1 | PF-363 (SMLSVTVMCLMHASVAANQAMEKKV; Peptide with targeting and/or antimicrobial activity) | G B | C. jejuni (D) | E. coli (C) | E. faecalis (D) | MRSA (H) | S. epidermidis (S) | S. pneumoniae (R) | B. subtilis; also recorded: E. coli; also recorded: P. aeruginosa; also recorded: C. albicans; also recorded: S. pneumoniae; also recorded: E. faecalis | – | – | – | – | – | – | –
2 | PF-369 (MSEAVNLLRGARYSQRYAKNQVPYEVIIEK; Peptide with targeting and/or antimicrobial activity) | G B | – | E. coli (R) | E. faecalis (C) | MRSA (H) | S. epidermidis (S) | – | B. subtilis; also recorded: B. fragilis; also recorded: E. coli; also recorded: P. aeruginosa; also recorded: C. albicans; also recorded: S. pneumoniae; also recorded: C. jeikeium; also recorded: C. jejuni | – | – | – | – | – | – | –
3 | PF-370 (VIFLHKESGNLKEIFY; Peptide with targeting and/or antimicrobial activity) | G B | – | E. coli (R) | – | MRSA (C) | S. epidermidis (C) | – | S. epidermidis; also recorded: E. coli; also recorded: P. aeruginosa; also recorded: E. faecalis; also recorded: C. jejuni | – | – | – | – | – | – | –
4 | PF-373 (HFYLLFER; Peptide with targeting and/or antimicrobial activity) | G B | – | – | – | MRSA (M) | S. epidermidis (M) | – | S. epidermidis and E. coli and P. aeruginosa and C. albicans and MRSA and E. faecalis and C. jejuni | – | – | – | – | – | – | –
5 | PF-378 (ESAKSNLNFLMQEEWALFLLL; Peptide with targeting and/or antimicrobial activity) | G B | – | – | – | MRSA (M) | S. epidermidis (M) | – | B. subtilis; also recorded: B. fragilis; also recorded: E. coli; also recorded: P. aeruginosa; also recorded: C. jeikeium | – | – | – | – | – | – | –
6 | PF-381 (QGANPCQQVGFTVNDPDCRLAKTV; Peptide with targeting and/or antimicrobial activity) | G B | – | E. coli (R) | E. faecalis (C) | MRSA (C) | S. epidermidis (C) | – | E. coli; also recorded: P. aeruginosa; also recorded: C. jejuni | – | – | – | – | – | – | –
7 | PF-382 (KYKCSWCKRVYTLRKDHKTAR; Peptide with targeting and/or antimicrobial activity) | G B | – | – | – | MRSA (M) | – | – | S. epidermidis; also recorded: B. subtilis; also recorded: B. fragilis; also recorded: E. coli; also recorded: P. aeruginosa; also recorded: E. faecalis; also recorded: C. jeikeium; also recorded: C. jejuni | – | – | – | – | – | – | –
8 | PF-383 (WSEIEINTKQSN; Peptide with targeting and/or antimicrobial activity) | G B | – | E. coli (R) | – | – | S. epidermidis (C) | – | S. epidermidis; also recorded: B. subtilis; also recorded: B. fragilis; also recorded: E. coli; also recorded: C. jejuni | – | – | – | – | – | – | –
9 | PF-385 (MIKKSILKIKYYVPVLISLTLILSA; Peptide with targeting and/or antimicrobial activity) | G B | – | E. coli (A) | – | – | – | – | – | S. epidermidis; also recorded: E. coli; also recorded: P. aeruginosa; also recorded: C. albicans; also recorded: E. faecalis | – | – | – | – | – | –
10 | PF-389 (GLQFKEIAEEFHITTTALQQWHKDNGYPIYNKNNRK; Peptide with targeting and/or antimicrobial activity) | G B | C. jejuni (R) | – | E. faecalis (R) | MRSA (C) | S. epidermidis (R) | S. pneumoniae (D) | – | S. epidermidis and C. albicans and MRSA and S. pneumoniae and E. faecalis and C. jeikeium | – | – | – | – | – | –
11 | PF-390 (VVAYVITQVGAIRF; Peptide with targeting and/or antimicrobial activity) | G B | C. jejuni (D) | E. coli (C) | E. faecalis (D) | MRSA (D) | S. epidermidis (D) | S. pneumoniae (D) | – | S. epidermidis and P. aeruginosa and C. albicans and MRSA | – | – | – | – | – | –
12 | PF-392 (DPAGCNDIVRKYCK; Peptide with targeting and/or antimicrobial activity) | G B | C. jejuni (A) | – | E. faecalis (A) | MRSA (S) | – | – | – | S. epidermidis; also recorded: B. subtilis; also recorded: S. pneumoniae; also recorded: C. jeikeium; also recorded: C. jejuni | – | – | – | – | – | –
13 | PF-393 (DLVQSILSEFKKSG; Peptide with targeting and/or antimicrobial activity) | G B | C. jejuni (R) | – | E. faecalis (A) | MRSA (C) | S. epidermidis (R) | S. pneumoniae (R) | – | S. epidermidis and E. coli and C. albicans and MRSA and S. pneumoniae and C. jejuni | – | – | – | – | – | –
14 | PF-394 (VLKEECYQKN; Peptide with targeting and/or antimicrobial activity) | G B | – | – | E. faecalis (A) | MRSA (C) | – | – | – | S. epidermidis and MRSA and C. jejuni | – | – | – | – | – | –
15 | PF-422 (MSRKKYENDEKSQKKLKIGRKSDVFYGIID; Peptide with targeting and/or antimicrobial activity) | G B | – | – | – | – | – | – | – | C. albicans and MRSA and C. jeikeium | C. jejuni (R) | E. faecalis (R) | MRSA (C) | S. epidermidis (R) | S. pneumoniae (C) | –
16 | PF-444 (MAAKLWEEGKMVYASSASMTKRLKLAMSKV; Peptide with targeting and/or antimicrobial activity) | G B | – | – | – | – | – | – | – | M. luteus; also recorded: C. albicans; also recorded: S. pneumoniae; also recorded: C. jeikeium | – | E. faecalis (C) | MRSA (C) | S. epidermidis (C) | S. pneumoniae (R) | E. coli (R)
17 | PF-445 (ASMTKRLKLAMSKV; Peptide with targeting and/or antimicrobial activity) | G B | – | – | – | – | – | – | – | M. luteus; also recorded: S. pneumoniae; also recorded: C. jeikeium | – | – | – | – | S. pneumoniae (M) | –
18 | PF-446 (SGNEKV; Peptide with targeting and/or antimicrobial activity) | G B | – | – | – | – | – | – | – | M. luteus; also recorded: C. jeikeium | – | – | – | – | S. pneumoniae (H) | –
19 | PF-447 (IDKSRNKDQFSHIFGLYNICSG; Peptide with targeting and/or antimicrobial activity) | G B | – | – | – | – | – | – | – | S. epidermidis; also recorded: M. luteus; also recorded: E. coli; also recorded: S. pneumoniae | – | E. faecalis (C) | MRSA (C) | S. epidermidis (C) | S. pneumoniae (C) | –

From patent US9597407B2, “Targeted antimicrobial moieties” (C3 Jian, Inc., priority 2009, dated 2017)
